Results published in patent US20090042905A1, “TRIAZOLE DERIVATIVES AS LIGANDS OF G-PROTEIN COUPLED RECEPTORS” (AETERNA ZENTARIS GmbH, priority 2007, published 2009).
Where two headings read alike, the source gives them in different places.

System: male C57BL/6J mice
Assay: Fasting-induced feeding behavior (food intake) of mice
Type: in vivo
Details: oral dose 2 μmol per mouse, 30 min before food
Protocol: The effectiveness of selected compounds of the invention on fasting-induced feeding behavior of mice was investigated.
The experiments were performed according to Asakawa A et al. (Asakawa A et al., Gut 2003, 52: 947-952) with the following technical details:
Preparation of compounds of the invention: dissolved in dimethylsulfoxide (DMSO) and then diluted in distilled water (i.e. 0.5, 1 and 10% DMSO for 0.5, 1 and 2 μmol/mouse, respectively);
Preparation of reference substance (positive control) sibutramine: dissolved in distilled water;
Control substance (negative vehicle control): 10% DMSO in distilled water (compounds of the invention); distilled water (sibutramine);
Route of administration: p.o.;
Pretreatment time: 30 min before presenting the food to the animals;
Volume of administration: 0.5 ml/mouse;
Animals: male C57BL/6J mice;
Body weight range: 18.3-21.4 g

[1] = 20 min, read-out: change of food intake - compounds versus vehicle treated negative control, at 20 min
[2] = 1 h, read-out: change of food intake - compounds versus vehicle treated negative control, at 1 h
[3] = 2 h, read-out: change of food intake - compounds versus vehicle treated negative control, at 2 h
[4] = 4 h, read-out: change of food intake - compounds versus vehicle treated negative control, at 4 h

SMILES | change in vivo at 2 µmol/mouse [1] [%] | change in vivo at 2 µmol/mouse [2] [%] | change in vivo at 2 µmol/mouse [3] [%] | change in vivo at 2 µmol/mouse [4] [%]
CC(C)(N)C(=O)N[C@H](Cc1c[nH]c2ccccc12)c1nnc(CCc2c[nH]c3ccccc23)n1Cc1cccc2ccccc12 [Compound 5, (R)-N-(1-(5-(2-(1H-indol-3-yl)ethyl)-4-(naphthalen-1-ylmethyl)-4H-1,2,4-triazol-3-yl)-2-(1H-indol-3-yl)ethyl)-2-amino-2-methylpropanamide] | -56 | -58 | -53 | -51
CC(C)(N)C(=O)N[C@H](Cc1c[nH]c2ccccc12)c1nnc(CCCc2c[nH]c3ccccc23)n1Cc1cccc2ccccc12 [Compound 11, (R)-N-(1-(5-(3-(1H-indol-3-yl)propyl)-4-(naphthalen-1-ylmethyl)-4H-1,2,4-triazol-3-yl)-2-(1H-indol-3-yl)ethyl)-2-amino-2-methylpropanamide] | -56 | -65 | -55 | -55
CC(C)(N)C(=O)N[C@H](Cc1c[nH]c2ccccc12)c1nnc(CCc2ccccc2)n1Cc1cccc2ccccc12 [Compound 27, (R)-N-(2-(1H-indol-3-yl)-1-(4-(naphthalen-1-ylmethyl)-5-phenethyl-4H-1,2,4-triazol-3-yl)ethyl)-2-amino-2-methylpropanamide] | -57 | -58 | -48 | -38
CC(C)(N)C(=O)N[C@H](Cc1c[nH]c2ccccc12)c1nnc(CCc2c[nH]c3ccccc23)n1Cc1ccc(Cl)c(Cl)c1 [Compound 28, (R)-N-(1-(5-(2-(1H-indol-3-yl)ethyl)-4-(3,4-dichlorobenzyl)-4H-1,2,4-triazol-3-yl)-2-(1H-indol-3-yl)ethyl)-2-amino-2-methylpropanamide] | -17 | -28 | -21 | -18
COc1ccc(Cn2c(CCc3c[nH]c4ccccc34)nnc2[C@@H](Cc2c[nH]c3ccccc23)NC(=O)C2CCNCC2)c(OC)c1 [Compound 31, (R)-N-(1-(5-(2-(1H-indol-3-yl)ethyl)-4-(2,4-dimethoxybenzyl)-4H-1,2,4-triazol-3-yl)-2-(1H-indol-3-yl)ethyl)piperidine-4-carboxamide] | 50 | 20 | 16 | 9
Cc1ccc(Cn2c(CCc3ccccc3)nnc2[C@@H](Cc2c[nH]c3ccccc23)NC(=O)C(C)(C)N)cc1 [Compound 37, (R)-N-(1-(4-(4-methylbenzyl)-5-phenethyl-4H-1,2,4-triazol-3-yl)-2-(1H-indol-3-yl)ethyl)-2-amino-2-methylpropanamide] | -37 | -49 | -51 | -34
COc1ccc(Cn2c(CCc3c[nH]c4ccccc34)nnc2[C@@H](Cc2c[nH]c3ccccc23)NC(=O)C2CCNCC2)cc1 [Compound 45, (R)-N-(1-(5-(2-(1H-indol-3-yl)ethyl)-4-(4-methoxybenzyl)-4H-1,2,4-triazol-3-yl)-2-(1H-indol-3-yl)ethyl)piperidine-4-carboxamide] | -36 | -28 | -33 | -34
COc1ccc(Cn2c(CCc3ccccc3)nnc2[C@@H](Cc2c[nH]c3ccccc23)NC(=O)[C@@H]2CCCCN2)cc1 [Compound 48, (S)-N-((R)-1-(4-(4-methoxybenzyl)-5-phenethyl-4H-1,2,4-triazol-3-yl)-2-(1H-indol-3-yl)ethyl)piperidine-2-carboxamide] | -22 | -30 | -27 | -21
COc1ccc(Cn2c(CCc3ccccc3)nnc2[C@@H](Cc2c[nH]c3ccccc23)NC(=O)[C@H]2CCCCN2)cc1 [Compound 49, (R)-N-((R)-1-(4-(4-methoxybenzyl)-5-phenethyl-4H-1,2,4-triazol-3-yl)-2-(1H-indol-3-yl)ethyl)piperidine-2-carboxamide] | -59 | -48 | -39 | -23
COc1ccc(Cn2c(CCc3ccccc3)nnc2[C@@H](Cc2c[nH]c3ccccc23)NC(=O)C2CCNCC2)c(OC)c1 [Compound 62, (R)-N-(1-(4-(2,4-dimethoxybenzyl)-5-phenethyl-4H-1,2,4-triazol-3-yl)-2-(1H-indol-3-yl)ethyl)piperidine-4-carboxamide] | 56 | 68 | 50 | 26
COc1ccc(Cn2c(CCc3ccccc3)nnc2[C@@H](Cc2c[nH]c3ccccc23)NC(=O)c2cnccn2)c(OC)c1 [Compound 66, (R)-N-(1-(4-(2,4-dimethoxybenzyl)-5-phenethyl-4H-1,2,4-triazol-3-yl)-2-(1H-indol-3-yl)ethyl)pyrazine-2-carboxamide] | -56 | -40 | -45 | -51
CC(C)(N)C(=O)N[C@H](Cc1c[nH]c2ccccc12)c1nnc(CCc2ccccc2)n1CCc1ccccc1 [Compound 117, (R)-N-(1-(4,5-diphenethyl-4H-1,2,4-triazol-3-yl)-2-(1H-indol-3-yl)ethyl)-2-amino-2-methylpropanamide] | -31 | -24 | -11 | -6
CC(C)(N)C(=O)N[C@H](Cc1c[nH]c2ccccc12)c1nnc(Cc2ccccc2)n1Cc1ccc(Cl)c(Cl)c1 [Compound 118, (R)-N-(1-(4-(3,4-dichlorobenzyl)-5-benzyl-4H-1,2,4-triazol-3-yl)-2-(1H-indol-3-yl)ethyl)-2-amino-2-methylpropanamide] | -31 | -30 | -25 | -24
CC(C)(N)C(=O)N[C@H](Cc1c[nH]c2ccccc12)c1nnc(CCc2ccccc2)n1Cc1ccc(Cl)c(Cl)c1 [Compound 122, (R)-N-(1-(4-(3,4-dichlorobenzyl)-5-phenethyl-4H-1,2,4-triazol-3-yl)-2-(1H-indol-3-yl)ethyl)-2-amino-2-methylpropanamide] | -52 | -42 | -28 | -16
O=C(N[C@H](Cc1c[nH]c2ccccc12)c1nnc(CCc2ccccc2)n1-c1ccccc1)C1CCNCC1 [Compound 142, N-((R)-2-(1H-indol-3-yl)-1-(5-phenethyl-4-phenyl-4H-1,2,4-triazol-3-yl)ethyl)piperidine-4-carboxamide] | -56 | -57 | -55 | -49
COc1ccc(Cn2c(CCc3ccccc3)nnc2[C@@H](Cc2c[nH]c3ccccc23)NC(=O)C(C)(C)N)c(OC)c1 [Compound 179, N-((R)-1-(4-(2,4-dimethoxybenzyl)-5-phenethyl-4H-1,2,4-triazol-3-yl)-2-(1H-indol-3-yl)ethyl)-2-amino-2-methylpropanamide] | -25 | -39 | -40 | -38
